This note sets out measurements from BindingDB's records for doi:10.1016/j.bmcl.2005.03.049 (Abbott Laboratories, 2005).

This test addresses Protein farnesyltransferase subunit beta/geranylgeranyltransferase type-1 subunit alpha (Bos taurus, UniProt P29702+P49355). Put plainly: FTase Activity Assay. As to conditions: pH 7.5; 37 °C. The method, then:
The in vitro activity of compounds inhibiting FTase was determined by measuring the transfer of [3H]-FPP to substrate Ha-Ras-CVLS. The incorporated radioactivity was quantified by scintillation counting.

Structures are written as SMILES.

As usually defined, the IC50 is the concentration at which inhibition is half-maximal. The low end stands for greater potency, the high end for weaker potency. As to `Cn1cncc1C(O)(c1ccc(Cl)cc1)c1ccc2ccn(-c3cccc4ccccc34)c2c1` (configuration not stated) [(4-chlorophenyl)(1-methyl-1H-imidazol-5-yl)[1-(naphthalen-1-yl)-1H-indol-6-yl]methanol], the IC50 was determined as 200 nM.
As for `Cn1cncc1C(O)(c1ccc(Cl)cc1)c1ccc2ccn(-c3cccc(Cl)c3)c2c1` (configuration not stated) [(4-chlorophenyl)[1-(3-chlorophenyl)-1H-indol-6-yl](1-methyl-1H-imidazol-5-yl)methanol], the figure is 36 nM.
